{
  "source": "patent US20250136617A1",
  "about": "(The Regents of the University of Colorado, A Body Corporate, priority 2022, published 2025)",
  "key": {"[1]": {"test_system": "diabetic wounds in Db mice", "assay": "Angiogenesis in diabetic wounds, CD31 immunohistochemistry at 7 days", "format": "in vivo", "method": "The ability of compound UCUF-728 to improve diabetic wound healing in vivo was examined. Full-thickness excisional 8 mm wounds were created in Db mice and were immediately treated with 10 μM UCUF-728 or phosphate-buffered saline (PBS) control. Wound healing over the course of 22 days was monitored. Initial wound size was calculated immediately after wounding, and wound closure was assessed over time as the percentage of initial wound area. […] The effect of UCUF-728 treatment on angiogenesis was assessed using immunohistochemistry for endothelial marker CD31. Representative photos of immunoperoxidase staining for CD31 at 7 days in diabetic wounds treated with PBS or UCUF-728 are shown in FIG. 8A.\nAll animal experiments were approved by the Institutional Animal Care and Use Committee at the University of Colorado Denver—Anschutz Medical Campus, and experimental protocols followed the guidelines described in the NIH Guide for the Care and Use of Laboratory Animals. […] Mice pictures were taken every other day, wound size was analyzed by Image J. A full-thickness skin sample, centered on the wound, was harvested 3 and 7 days after surgery (n=5 per timepoint).\nThe effect of UCUF-965 treatment on angiogenesis was assessed using immunohistochemistry for the endothelial marker CD31. […] Quantification of the staining was obtained."}, "CXCR4 [2]": {"molecular_target": "T1, CXCR4 (Homo sapiens, UniProt P61073)", "T1 sequence (P61073 whole entry)": "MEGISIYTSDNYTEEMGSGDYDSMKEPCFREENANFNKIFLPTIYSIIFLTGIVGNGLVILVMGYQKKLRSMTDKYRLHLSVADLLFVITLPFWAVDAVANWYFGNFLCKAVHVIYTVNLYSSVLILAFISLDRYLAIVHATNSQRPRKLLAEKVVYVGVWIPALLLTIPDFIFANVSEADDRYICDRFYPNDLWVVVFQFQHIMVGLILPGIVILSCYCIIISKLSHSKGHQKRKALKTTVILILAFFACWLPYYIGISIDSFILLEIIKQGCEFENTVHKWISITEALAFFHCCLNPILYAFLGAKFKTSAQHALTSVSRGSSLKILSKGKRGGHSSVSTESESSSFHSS", "assay": "Tag-Lite CXCR4 binding assay (displacement of fluorescent SDF-1α)", "method": "Binding activity was measured using the Cisbio Tag-Lite Chemokine CXCR4 system (CisBio, Bedford, MA). […] Following three-hour incubation, HTRF measurements were taken using the BMG LABTECH CLARIOstar Plus (BMG LABTECH Inc., Cary, NC) with emission signals set to the Cisbio Tag-Lite Binding Assay supplier guidelines. HTRF ratio calculations completed according to supplier guidelines."}, "CXCR4 [3]": {"molecular_target": "T1, CXCR4", "assay": "β-arrestin recruitment, 384-well, Tango CXCR4-bla U2OS cells, normalized to SDF-1α", "format": "cell-based", "design": "host or cells: U2OS", "conditions": "for EC50: normalized to SDF-1α, read-out: ß-arrestin recruitment EC50", "method_in_brief": "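Tango CXCR4-bla U2OS cells plated in DMEM with 1% dialyzed FBS (FreeStyle 293 medium for thiadiazines), incubated overnight at 37 °C, then LiveBLAzer FRET B/G substrate added for 2 h in the dark. Fluorescence read; EC50 and Emax fitted with Hill slope 1.0, normalized to SDF-1α.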"}},
  "note": "Entries after “also recorded” stand apart in the source; their conditions may differ. Where two headings read alike, the source gives them in different places.",
  "data": [
    {"compound": "COc1ccc(OC)c(NS(=O)(=O)c2ccc(-c3cnc(C4CC4)o3)cc2)c1", "note": "[Oxazole Entry 19, 4-(2-Cyclopropyloxazol-5-yl)-N-(2,5-dimethoxyphenyl)benzenesulfonamide]", "values": [
      {"measurement": "number of vessels (CD31 staining) vs PBS", "setting": "[1]; listed as UCUF-728", "value": "significant increase in the number of vessels; also recorded: enhanced angiogenesis"},
      {"measurement": "displacement of SDF-1α binding", "setting": "CXCR4 [2]; listed as UCUF-728", "value": "did not displace SDF-1α binding; also recorded: did not displace SDF-1a saturation binding"},
      {"measurement": "β-arrestin recruitment activity", "setting": "CXCR4 [3]", "value": "dose-dependent partial activation of β-arrestin recruitment"},
      {"measurement": "Emax", "setting": "CXCR4 [3]; U2OS, read-out: ß-arrestin recruitment Emax (%)", "value": 30, "unit": "%"},
      {"measurement": "EC50", "setting": "CXCR4 [3]", "value": 500, "unit": "nM"}
    ]},
    {"compound": "CCOc1ccccc1-c1nnc2n1N=C(c1ccc(N3CCCC3)cc1)CS2", "note": "[Thiadiazine Entry 23, 3-(2-ethoxyphenyl)-6-(4-(pyrrolidin-1-yl)phenyl)-7H-[1,2,4]triazolo[3,4-b][1,3,4]thiadiazine]", "values": [
      {"measurement": "number of vessels (CD31 staining) vs PBS", "setting": "[1]; listed as UCUF-965", "value": "enhanced angiogenesis markers; also recorded: significantly increased the number of vessels"},
      {"measurement": "displacement of SDF-1α binding", "setting": "CXCR4 [2]; listed as UCUF-965", "value": "did not displace fluorescently labelled SDF-1α binding; also recorded: did not displace SDF-1α saturation binding; also recorded: did not competitively displace"},
      {"measurement": "β-arrestin recruitment activity", "setting": "CXCR4 [3]; listed as UCUF-965", "value": "dose-dependent partial activation of β-arrestin recruitment; also recorded: did not inhibit the action of SDF-1α"},
      {"measurement": "EC50", "setting": "CXCR4 [3]", "value": 20, "unit": "nM"}
    ]}
  ]
}
